The source made the active and inactive calls. The calls are words filed in the database; no cut-off is given here.
Columns and labels:
[1] = test system: U-937; assay: Antiproliferative activity against human U-937 cells assessed as inhibition of cell growth incubated for 7 days by MTS reagent based assay; assay type: functional; details: U-937, 168 h
[2] = test system: MV4-11; assay: Induction of apoptosis in human MV4-11 cells assessed as late apoptotic cells at 0.01 nM incubated for 48 hrs by Annexin V-FITC/PI staining based flow cytometric analysis (reference value: 0.91 %); assay type: functional
[3] = test system: OCI-Ly10; assay: Antitumor activity against human OCI-Ly10 cells xenografted in Balb/c nude mouse assessed as tumor volume at 30 mg/kg, po administered once daily for 18 days (reference value: 561 +/- 370 mm^3); assay type: functional; details: time 18 day
[4] = test system: MV4-11; assay: Induction of apoptosis in human MV4-11 cells assessed as necrotic cells at 0.01 nM incubated for 48 hrs by Annexin V-FITC/PI staining based flow cytometric analysis (reference value: 0.07 %); assay type: functional
[5] = molecular target: T1, Protein cereblon/Bromodomain-containing protein 9 (Homo sapiens, UniProt Q9H8M2+Q96SW2); assay: PROTAC activity at CRBN/BRD9 in human MV4-11 cells assessed as induction of BRD9 degradation by Western blot analysis; assay type: cell-based
[6] = test system: MV4-11; assay: Induction of apoptosis in human MV4-11 cells assessed as late apoptotic cells at 0.1 nM incubated for 48 hrs by Annexin V-FITC/PI staining based flow cytometric analysis (reference value: 0.91 %); assay type: functional
[7] = molecular target: T1, Protein cereblon/Bromodomain-containing protein 9; assay: PROTAC activity at CRBN/BRD9 in human MV4-11 cells assessed as induction of BRD9 degradation at 0.33 nM in presence of MLN4924 by Western blot analysis; assay type: cell-based
Target sequence in this assay (Q96SW2 whole entry, looked up): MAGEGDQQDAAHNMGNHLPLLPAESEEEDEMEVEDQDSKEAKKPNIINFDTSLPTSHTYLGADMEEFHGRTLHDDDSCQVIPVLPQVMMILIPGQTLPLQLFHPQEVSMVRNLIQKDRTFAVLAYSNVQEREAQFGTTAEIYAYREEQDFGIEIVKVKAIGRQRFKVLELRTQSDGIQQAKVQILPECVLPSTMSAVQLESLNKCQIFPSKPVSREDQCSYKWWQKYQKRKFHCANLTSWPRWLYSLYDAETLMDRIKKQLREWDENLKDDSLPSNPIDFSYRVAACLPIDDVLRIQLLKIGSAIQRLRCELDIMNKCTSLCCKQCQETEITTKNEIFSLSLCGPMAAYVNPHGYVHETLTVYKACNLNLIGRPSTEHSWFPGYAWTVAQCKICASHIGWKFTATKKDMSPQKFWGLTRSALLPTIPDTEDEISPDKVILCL
Target sequence in this assay (Q9H8M2 whole entry, looked up): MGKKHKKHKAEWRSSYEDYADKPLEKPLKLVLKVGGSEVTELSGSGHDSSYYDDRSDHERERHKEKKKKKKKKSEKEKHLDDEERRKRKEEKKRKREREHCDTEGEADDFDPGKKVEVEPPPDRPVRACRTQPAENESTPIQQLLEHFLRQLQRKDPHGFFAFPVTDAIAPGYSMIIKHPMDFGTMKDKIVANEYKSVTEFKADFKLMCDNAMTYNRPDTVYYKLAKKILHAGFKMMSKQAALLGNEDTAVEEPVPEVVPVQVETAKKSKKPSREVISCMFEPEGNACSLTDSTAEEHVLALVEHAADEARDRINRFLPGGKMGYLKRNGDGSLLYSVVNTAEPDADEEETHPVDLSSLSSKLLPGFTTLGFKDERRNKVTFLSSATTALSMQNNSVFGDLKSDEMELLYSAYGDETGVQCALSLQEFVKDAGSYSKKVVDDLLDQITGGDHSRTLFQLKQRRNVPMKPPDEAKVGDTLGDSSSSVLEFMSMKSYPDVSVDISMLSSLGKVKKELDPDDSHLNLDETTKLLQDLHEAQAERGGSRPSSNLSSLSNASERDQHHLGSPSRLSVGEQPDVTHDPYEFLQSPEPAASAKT

[8] = test system: MV4-11; assay: Induction of apoptosis in human MV4-11 cells assessed as viable cells at 1 nM incubated for 48 hrs by Annexin V-FITC/PI staining based flow cytometric analysis (reference value: 94.80 %); assay type: functional; details: read-out: Activity
[9] = test system: MV4-11; assay: Cell cycle arrest in human MV4-11 cells assessed as accumulation of cells at G1 phase at 0.01 to 10 nM incubated for 24 hrs by PI staining based flow cytometric analysis; assay type: functional; details: dose 0.01-10 nM
[10] = molecular target: T1, Protein cereblon/Bromodomain-containing protein 9; assay: PROTAC activity at CRBN/BRD9 in human MV4-11 cells assessed as induction of BRD9 degradation at 0.33 nM measured within 2 hrs by Western blot analysis; assay type: cell-based
Target sequence in this assay (Q96SW2 whole entry, looked up): as the sequence (Q96SW2 whole entry, looked up) above
Target sequence in this assay (Q9H8M2 whole entry, looked up): as the sequence (Q9H8M2 whole entry, looked up) above

[11] = Toxicity in Balb/c nude mouse xenografted with human OCI-Ly10 cells assessed as mortality at 30 mg/kg, po administered once daily for 18 days; assay type: organism-based; details: in vivo, 432 h, time 18 day
[12] = test system: MV4-11; assay: Induction of apoptosis in human MV4-11 cells assessed as viable cells at 0.01 nM incubated for 48 hrs by Annexin V-FITC/PI staining based flow cytometric analysis (reference value: 94.80 %); assay type: functional; details: read-out: Activity
[13] = test system: SU-DHL-2; assay: Antiproliferative activity against human SU-DHL-2 cells assessed as inhibition of cell growth incubated for 7 days by MTS reagent based assay; assay type: functional; details: SU-DHL-2, 168 h
[14] = test system: MV4-11; assay: Antiproliferative activity against human MV4-11 cells assessed as inhibition of cell growth incubated for 7 days by MTS reagent based assay; assay type: functional; details: MV4-11, 168 h
[15] = test system: MV4-11; assay: Antiproliferative activity against CRBN knockout human MV4-11 cells assessed as inhibition of cell growth incubated for 7 days by MTS reagent based assay; assay type: functional; details: MV4-11, 168 h
[16] = test system: MV4-11; assay: Induction of apoptosis in human MV4-11 cells assessed as necrotic cells at 0.1 nM incubated for 48 hrs by Annexin V-FITC/PI staining based flow cytometric analysis (reference value: 0.07 %); assay type: functional
[17] = molecular target: T1, Protein cereblon/Bromodomain-containing protein 9; assay: PROTAC activity at CRBN/BRD9 in human MV4-11 cells assessed as induction of BRD9 degradation at 0.33 nM measured after 4 hrs by Western blot analysis relative to control; assay type: cell-based
Target sequence in this assay (Q96SW2 whole entry, looked up): as the sequence (Q96SW2 whole entry, looked up) above
Target sequence in this assay (Q9H8M2 whole entry, looked up): as the sequence (Q9H8M2 whole entry, looked up) above

[18] = test system: Mus musculus; assay: Upregulation of C-myc expression in Balb/c nude mouse tumor xenografted with human MV4-11 cells at 20 mg/kg, ip administered once daily for 20 days by Western blot analysis; assay type: functional, organism-based; details: time 20.0 day
[19] = Toxicity in Balb/c nude mouse xenografted with human OCI-Ly10 cells assessed as effect on body weight at 30 mg/kg, po administered once daily for 18 days; assay type: organism-based; details: in vivo, 432 h, time 18 day
[20] = test system: OCI-Ly10; assay: Antiproliferative activity against human OCI-Ly10 cells assessed as inhibition of cell growth incubated for 7 days by MTS reagent based assay; assay type: functional; details: OCI-Ly10, 168 h
[21] = test system: MV4-11; assay: Downregulation of AXIN2 mRNA expression level in human MV4-11 cells at 0.1 to 10 nM measured after 24 to 48 hrs by qPCR analysis; assay type: functional, cell-based; details: dose 0.1-10 nM, time 24-48 hrs
[22] = test system: MV4-11; assay: Induction of apoptosis in human MV4-11 cells assessed as late apoptotic cells at 10 nM incubated for 48 hrs by Annexin V-FITC/PI staining based flow cytometric analysis (reference value: 0.91 %); assay type: functional
[23] = molecular target: T1, Protein cereblon/Bromodomain-containing protein 9; assay: PROTAC activity at CRBN/BRD9 in human MV4-11 cells assessed as induction of BRD9 degradation at 10 nM by Western blot analysis relative to control; assay type: cell-based
Target sequence in this assay (Q96SW2 whole entry, looked up): as the sequence (Q96SW2 whole entry, looked up) above
Target sequence in this assay (Q9H8M2 whole entry, looked up): as the sequence (Q9H8M2 whole entry, looked up) above

[24] = test system: OCI-Ly10; assay: Antitumor activity against human OCI-Ly10 cells xenografted in Balb/c nude mouse assessed as relative tumor volume at 30 mg/kg, po administered once daily for 18 days (reference value: 9.07 +/- 4.66); assay type: functional; details: time 18 day
[25] = test system: MV4-11; assay: Induction of IKZF1 degradation in human MV4-11 cells at 1 to 100 nM by Western blot analysis; assay type: cell-based; details: dose 1-100 nM
[26] = test system: MV4-11; assay: Antitumor activity against human MV4-11 cells xenografted in Balb/c nude mouse assessed as relative tumor volume at 20 mg/kg, ip administered once daily for 20 days (reference value: 7.85 +/- 3.69); assay type: functional; details: time 20 day
[27] = molecular target: T1, Protein cereblon/Bromodomain-containing protein 9; assay: PROTAC activity at CRBN/BRD9 in human MV4-11 cells assessed as induction of BRD9 degradation at 0.33 nM in presence of MG132 by Western blot analysis; assay type: cell-based
Target sequence in this assay (Q96SW2 whole entry, looked up): as the sequence (Q96SW2 whole entry, looked up) above
Target sequence in this assay (Q9H8M2 whole entry, looked up): as the sequence (Q9H8M2 whole entry, looked up) above

[28] = molecular target: T1, Protein cereblon/Bromodomain-containing protein 9; assay: In vivo PROTAC activity at CRBN/BRD9 in Balb/c nude mouse xenografted with human MV4-11 cells assessed as induction of BRD9 degradation in tumor at 20 mg/kg, ip administered once daily for 20 days by Western blot analysis; assay type: functional, organism-based; details: time 20.0 day
Target sequence in this assay (Q96SW2 whole entry, looked up): as the sequence (Q96SW2 whole entry, looked up) above
Target sequence in this assay (Q9H8M2 whole entry, looked up): as the sequence (Q9H8M2 whole entry, looked up) above

[29] = test system: MOLM-13; assay: Antiproliferative activity against human MOLM-13 cells assessed as inhibition of cell growth incubated for 7 days by MTS reagent based assay; assay type: functional; details: MOLM-13, 168 h
[30] = molecular target: T1, Protein cereblon/Bromodomain-containing protein 9; assay: PROTAC activity at CRBN/BRD9 in human MV4-11 cells assessed as induction of BRD9 degradation at 0.33 nM by Western blot analysis relative to control; assay type: cell-based; details: time 0.5-24 hrs
[31] = test system: MV4-11; assay: Induction of apoptosis in human MV4-11 cells assessed as necrotic cells at 1 nM incubated for 48 hrs by Annexin V-FITC/PI staining based flow cytometric analysis (reference value: 0.07 %); assay type: functional
[32] = test system: MV4-11; assay: Downregulation of CELF1 protein expression in human MV4-11 cells by proteomic analysis; assay type: functional, cell-based
[33] = test system: MV4-11; assay: Induction of apoptosis in human MV4-11 cells assessed as early apoptotic cells at 0.1 nM incubated for 48 hrs by Annexin V-FITC/PI staining based flow cytometric analysis (reference value: 4.22 %); assay type: functional

Compound: COc1cc(-c2cn(C)c(=O)c3ccccc23)cc(OC)c1CN1CCC(CN2CCC(c3ccc4c5c(cccc35)C(=O)N4C3CCC(=O)NC3=O)CC2)CC1 (centres undefined)
- IC50 [1]: 1060 nM
- Activity [2]: 1.63%
- Activity [3]: 309 mm3
- Activity [4]: 0.03%
- Activity [5]: Dose-dependent-effect
- DC50 [5]: 0.016 nM
- Activity [6]: 3.37%
- Activity [7]: Not active; Compound Functioned Through Ubiquitin-Proteasome System
- viability at 0.001 µM [8]: 80.4%
- Activity [9]: Active
- Activity [10]: Active
- Activity [11]: Non-toxic
- viability at 10 pM [12]: 92%
- IC50 [13]: 38.6 nM
- IC50 [14]: 0.27 nM
- IC50 [15]: > 5000 nM
- Activity [16]: 0.03%
- Activity [17]: 92%
- Activity [18]: Active
- Activity [19]: Non-toxic
- IC50 [20]: 1.04 nM
- Activity [21]: Active
- Activity [22]: 8.01%
- Activity [23]: 98.5%
- Activity [24]: 4
- Activity [25]: Active; Moderate Degradation Observed
- Activity [26]: 4.99
- Activity [27]: Not active; Compound Functioned Through Ubiquitin-Proteasome System
- Activity [28]: Active
- IC50 [29]: 0.37 nM
- Activity [30]: Time-dependent-effect
- Activity [31]: 0.06%
- Activity [32]: Active
- Activity [33]: 9.2%
